# Measured values published in patent US20170071976A1, “PHARMACEUTICAL SOLUTION HAVING ANTI-TUMOR EFFECT-ENHANCING AND TOXICITY-REDUCING EFFECT, AND PHARMACEUTICAL COMPOSITION COMPRISING SAME” (priority 2014, published 2017).
# Legend:
# adult human = assay: Theoretical extrapolation of the toxic deuterium oxide body content to an adult human; details: adult human of 60 kg body weight
# Description: Deuterium oxide (heavy water, D2O, Mw: 20.03, CAS No. 7789-20-0) can be isolated from seawater. A normal body of adult human contains about 5 g deuterium oxide. […] Based on this experimental result, theoretically, assuming the body weight of an adult human is 60 kg, deuterium oxide that reaches 18 kg in the body starts to cause toxicity. However, it is actually impossible for a human body to have 18 kg deuterium oxide. […] Therefore, deuterium oxide should be a non-toxic substance [D. M. Czajka: Am. J. Physiol.
# [1] = system: human colon cancer HCT-116 cells; assay: Cell invasion assayed by Transwell; type: cell-based; details: for Number of cells (HCT-116): invaded cells, control 65.0 ± 12.0; for Number of cells: invaded HCT-116 cells, control 76.0 ± 4.6
# Protocol: Inhibition of invasion of human colon cancer HCT-116 cells and human lung cancer A549 cells by deuterium oxide in combination with 5-fluorouracil or gemcitabine (by the Transwell method)
# (§1) 1.1. Warm water at 37° C. to 40° C. was prepared, a cryogenic vial was taken out of liquid nitrogen and immediately put into the 37° C.-40° C. warm water, followed by vigorous shaking until the cryogenic liquid was completely thawed; 1.2. The suspension of cryogenic cells was transferred to a centrifugal tube, 5 ml culture medium was added thereto, and the cells were well mixed in the medium by gentle pipetting; 1.3. The cell suspension was centrifuged at 800 to 1,000 rpm for 5 min, and the supernatant was discarded; 1.4. A complete culture medium was added to the cell pellet which was well mixed by gentle pipetting, the cell suspension was transferred to a culture flask, and the cells were cultured by supplementing culture medium.
# 1. […] After incubation of cells with the test drugs for 24 hours, serum was removed, and the cells were incubated under starvation with an incomplete culture medium for 24 hours; 3. Matrigel was placed at 4° C. in advance to thaw overnight; 4. Thawed Matrigel was 1:1 diluted with the incomplete culture medium, 30 μl diluted Matrigel was added to the upper compartment of Transwell and incubated at 37° C. for 120 min to gel the Matrigel; 5. Cells from different groups were digested, counted, and then adjusted to a density of 1×10^5 cells/ml with the incomplete culture medium, 100 μl cell suspension was added to the upper compartment (small compartment) of Transwell, and 500 μl medium containing 20% FBS was added to the lower compartment of Transwell; 6. A 24-well cell culture plate was placed in an incubator at 37° C. and 5% CO2 to culture the cells for 24 hours; 7. Cell counting: cells in the Matrigel and the upper compartment were wiped off with a cotton swab, the Transwell was removed, followed by inversion and air drying, 500 μl medium containing 0.1% crystal violet was added to the 24-well plate, the small compartment was placed in the medium to allow the membrane to be immersed in the dye, removed after holding at 37° C. for 30 min, washed with PBS, and photographed in 3 fields along the diameter (200× magnification) for cell counting. 8. The assay was repeated one more time.
# [2] = system: human colon cancer HCT-116 cells; assay: Cell cycle by PI single staining (flow cytometry); type: cell-based; details: 72 hours
# Protocol: Effect of deuterium oxide on the cell cycle of human lung cancer A549 cells and human colon cancer HCT-116 cells
# A KGA511 Cell cycle assay kit was provided by NANJING KEYGEN BIOTECH. CO., LTD.
# The flow cytometer was FACS Calibur provided by Becton-Dickinson, US.
# as §1, with “vial of cells” for “vial”
# 2.1. The original culture medium was removed by pipetting when the cell coverage reached 80% to 90% in the culture bottle; 2.2. A suitable amount of trypsin (0.25%) was added to digest for 1 to 2 min; 2.3. When all the cells became round, an equal volume of culture medium containing serum was added to cease the digestion; 2.4. The cells were blown by pipetting to suspend, then drawn into a 15 ml centrifugal tube, and centrifuged at 1000 rpm for 5 min; 2.5. The supernatant was discarded, and the cells were re-suspended in 1 to 2 ml culture medium and transferred to a culture bottle for further culturing.
# 1. Cells growing in the exponential phase were digested and inoculated to a 6-well plate; on the next day, after the cells attached to the wall, cell culture media containing corresponding test drugs were added according to different groups, and a negative control group was also set; 2. After treatment with test drugs for 72 hours, cells were digested with 0.25% pancreatin (EDTA-free) and collected; 3. The cells were washed with PBS once (centrifuged at 2,000 rpm for 5 min), and 5×10^5 cells were collected; 4. The prepared suspension of individual cells was fixed with 70% (v/v) ethanol for 2 hours (or overnight), and stored at 4° C.; before staining, the fixing solution was washed away with PBS (if necessary, the cell suspension was filtered once through a 200-mesh screen); 5. 100 μl RNase A was added, and the cells were water-bathed at 37° C. for 30 min; 6. 400 μl PI was added and well mixed for staining, and the cells were kept at 4° C. in darkness for 30 min; 7. In a detection apparatus, red fluorescence with an excitation wavelength of 488 nm was recorded.
# [3] = system: human colon cancer HCT-116 cells (a moderately drug resistant strain); assay: MTT assay: deuterium oxide in combination with 5-FU; type: cell-based; details: read-out: Inhibition of cell growth (%) (5-FU alone)
# Protocol: In vitro inhibition of growth of human colon cancer HCT-116 cells (a moderately drug resistant strain) by deuterium oxide in combination with 5-fluorouracil (5-FU)
# Method: 5-fluorouracil was diluted with the sodium chloride deuterium oxide solution according to the concentrations shown in Table 2 and added to a cell culture plate; the in vitro inhibition of tumor cell growth was measured by the MTT assay in the same manner as Example 14.
# The assay was repeated one more time.
smiles,measurement,setting,value
[2H]O[2H] [Deuterium oxide],amount in the body that starts to cause toxicity,adult human,18 kg
same,Number of cells (HCT-116),[1]; deuterium oxide 1.8% (v/v),29.3 ± 5.1
same,Number of cells (HCT-116),[1]; deuterium oxide 7.5% (v/v),3.7 ± 0.6
same,Number of cells (HCT-116),[1]; deuterium oxide 15% (v/v),3.0 ± 1.0
same,Number of cells (HCT-116),[1]; deuterium oxide 30% (v/v),1.70 ± 0.6
same,Number of cells (HCT-116),[1]; deuterium oxide […] (v/v),16.3 ± 3.2
same,G2 Phase,"[2]; deuterium oxide 30% v/v, control 8.06 ± 1.89",4.21 ± 0.95%
same,S Phase,"[2]; deuterium oxide 30% v/v, control 9.40 ± 1.83",6.61 ± 1.41%
same,G1 Phase,"[2]; deuterium oxide 30% v/v, control 82.53 ± 1.76",89.19 ± 3.81%
"O=c1[nH]cc(F)c(=O)[nH]1 [Example 5-FU, 5-fluorouracil]",Number of cells,[1]; 5-FU 0.195 ug/ml in NS,66.0 ± 2.6
same,Number of cells,[1]; 5-FU 0.39 ug/ml in NS,47.3 ± 4.0
same,Number of cells,[1]; 5-FU 0.78 ug/ml in NS,31.3 ± 1.5
same,Number of cells,[1]; 5-FU 1.56 ug/ml in NS,23.0 ± 4.6
same,Number of cells,[1]; 5-FU 3.125 ug/ml in NS,12.0 ± 2.0
same,Number of cells,[1]; 5-FU 6.25 ug/ml in NS,10.7 ± 1.5
same,Number of cells,[1]; 5-FU 12.5 ug/ml in NS,6.3 ± 0.6
same,G1 Phase,[2]; 5-FU 12.5 ug/ml in NS,32.69 ± 8.66%
same,G2 Phase,[2]; 5-FU 12.5 ug/ml in NS,41.24 ± 2.97%
same,S Phase,[2]; 5-FU 12.5 ug/ml in NS,26.07 ± 11.32%
same,inhibition at 0.02 µg/mL,[3]; 5-FU final conc. 0.02 μg/ml,2.18%
same,inhibition at 0.05 µg/mL,[3]; 5-FU final conc. 0.05 μg/ml,2.55%
same,inhibition at 0.1 µg/mL,[3]; 5-FU final conc. 0.10 μg/ml,2.3%
same,inhibition at 0.2 µg/mL,[3]; 5-FU final conc. 0.20 μg/ml,3.24%
same,inhibition at 0.39 µg/mL,[3]; 5-FU final conc. 0.39 μg/ml,6.98%
same,inhibition at 0.78 µg/mL,[3]; 5-FU final conc. 0.78 μg/ml,9.82%
same,inhibition at 1.56 µg/mL,[3]; 5-FU final conc. 1.56 μg/ml,11%
same,inhibition at 3.13 µg/mL,[3]; 5-FU final conc. 3.13 μg/ml,18.6%
same,inhibition at 6.25 µg/mL,[3]; 5-FU final conc. 6.25 μg/ml,26.5%
same,inhibition at 12.5 µg/mL,[3]; 5-FU final conc. 12.5 μg/ml,35.3%
